Values of other authors in patent US20110145936A1, “Genetically Modified Rat Models for Pharmacokinetics” (priority 2009, published 2011).

Legend:
Slc7a11 = target: T1, Slc7a11 (Homo sapiens, UniProt Q9UPY5); conditions: WT Slc7a11 cells; more sensitive to the GA analog
T1 sequence (Q9UPY5 1-501): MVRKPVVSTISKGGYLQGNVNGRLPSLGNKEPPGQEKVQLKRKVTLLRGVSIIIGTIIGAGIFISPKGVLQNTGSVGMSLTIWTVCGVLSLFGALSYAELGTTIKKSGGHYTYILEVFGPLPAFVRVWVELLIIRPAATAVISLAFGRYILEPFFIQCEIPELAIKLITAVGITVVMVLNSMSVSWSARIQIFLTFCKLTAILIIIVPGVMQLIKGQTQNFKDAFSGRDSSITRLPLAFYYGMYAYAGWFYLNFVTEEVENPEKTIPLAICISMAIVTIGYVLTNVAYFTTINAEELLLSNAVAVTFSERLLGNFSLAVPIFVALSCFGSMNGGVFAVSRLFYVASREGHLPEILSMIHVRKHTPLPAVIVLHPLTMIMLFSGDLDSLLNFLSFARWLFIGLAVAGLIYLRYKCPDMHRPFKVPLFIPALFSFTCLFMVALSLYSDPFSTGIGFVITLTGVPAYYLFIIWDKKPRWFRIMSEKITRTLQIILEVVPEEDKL
T1 sequence (P08195 1-529 partner): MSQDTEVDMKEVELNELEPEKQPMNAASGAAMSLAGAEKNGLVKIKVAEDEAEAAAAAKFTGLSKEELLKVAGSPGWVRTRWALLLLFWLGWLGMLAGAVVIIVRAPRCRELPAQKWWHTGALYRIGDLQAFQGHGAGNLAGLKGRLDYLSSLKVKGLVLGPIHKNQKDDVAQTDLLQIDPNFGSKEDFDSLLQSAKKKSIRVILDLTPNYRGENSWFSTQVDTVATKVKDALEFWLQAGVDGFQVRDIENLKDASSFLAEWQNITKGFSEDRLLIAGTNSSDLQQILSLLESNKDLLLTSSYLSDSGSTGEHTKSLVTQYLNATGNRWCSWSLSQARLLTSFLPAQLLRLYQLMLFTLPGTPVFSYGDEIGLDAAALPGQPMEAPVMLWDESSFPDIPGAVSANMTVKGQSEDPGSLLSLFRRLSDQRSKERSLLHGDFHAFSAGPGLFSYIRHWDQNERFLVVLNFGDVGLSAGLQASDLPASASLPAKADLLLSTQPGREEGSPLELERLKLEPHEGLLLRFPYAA

Abcg2 & Abcb1 = conditions: gene Abcg2 & Abcb1
Abcb11 = Abcb11 (Mus musculus, UniProt Q9QY30)
Abcb1 = conditions: for direct liver mediated excretion: Abcb1-/- vs WT mice, cannulation of the gall bladder
Slc22a8 = Slc22a8 (Mus musculus, UniProt Q9WTW5); conditions: gene Slc22a8
Abcg2 = target: T2, Abcg2 (Mus musculus, UniProt Q7TMS5); conditions: Abcg2-/- mice vs WT
T2 construct: host or cells: whole animal: WT mice versus Abcg2-/- mice
T2 sequence (Q7TMS5 1-657): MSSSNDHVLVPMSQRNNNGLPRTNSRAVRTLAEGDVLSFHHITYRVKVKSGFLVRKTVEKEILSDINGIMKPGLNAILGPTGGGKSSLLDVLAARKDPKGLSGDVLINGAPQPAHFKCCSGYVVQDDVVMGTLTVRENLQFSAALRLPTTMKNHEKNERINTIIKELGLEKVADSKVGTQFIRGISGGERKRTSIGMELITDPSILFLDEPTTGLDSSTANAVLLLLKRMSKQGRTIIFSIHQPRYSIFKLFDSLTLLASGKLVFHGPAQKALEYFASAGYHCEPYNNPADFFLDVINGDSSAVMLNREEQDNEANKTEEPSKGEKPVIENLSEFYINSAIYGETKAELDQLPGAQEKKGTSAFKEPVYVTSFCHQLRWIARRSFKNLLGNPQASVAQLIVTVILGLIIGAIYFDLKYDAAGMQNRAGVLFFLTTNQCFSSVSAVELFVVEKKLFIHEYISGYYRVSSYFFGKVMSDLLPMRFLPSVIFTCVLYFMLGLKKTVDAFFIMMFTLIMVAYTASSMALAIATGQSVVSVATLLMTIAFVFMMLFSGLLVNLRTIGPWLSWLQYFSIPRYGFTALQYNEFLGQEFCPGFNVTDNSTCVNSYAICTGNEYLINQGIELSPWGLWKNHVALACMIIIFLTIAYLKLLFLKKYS

[1] = test system: leukemia cell lines which express high levels of Slc29a1; conditions: graded levels of azacytidine in the presence of a tight binding Slc29a1 inhibitor
Abcc1 = Abcc1 (Mus musculus, UniProt O35379); conditions: for white blood cell, bone marrow nucleated cell and spleen myeloid activity: Abcc1 KO mice after etoposide
Abcc1, sequence (O35379 whole entry): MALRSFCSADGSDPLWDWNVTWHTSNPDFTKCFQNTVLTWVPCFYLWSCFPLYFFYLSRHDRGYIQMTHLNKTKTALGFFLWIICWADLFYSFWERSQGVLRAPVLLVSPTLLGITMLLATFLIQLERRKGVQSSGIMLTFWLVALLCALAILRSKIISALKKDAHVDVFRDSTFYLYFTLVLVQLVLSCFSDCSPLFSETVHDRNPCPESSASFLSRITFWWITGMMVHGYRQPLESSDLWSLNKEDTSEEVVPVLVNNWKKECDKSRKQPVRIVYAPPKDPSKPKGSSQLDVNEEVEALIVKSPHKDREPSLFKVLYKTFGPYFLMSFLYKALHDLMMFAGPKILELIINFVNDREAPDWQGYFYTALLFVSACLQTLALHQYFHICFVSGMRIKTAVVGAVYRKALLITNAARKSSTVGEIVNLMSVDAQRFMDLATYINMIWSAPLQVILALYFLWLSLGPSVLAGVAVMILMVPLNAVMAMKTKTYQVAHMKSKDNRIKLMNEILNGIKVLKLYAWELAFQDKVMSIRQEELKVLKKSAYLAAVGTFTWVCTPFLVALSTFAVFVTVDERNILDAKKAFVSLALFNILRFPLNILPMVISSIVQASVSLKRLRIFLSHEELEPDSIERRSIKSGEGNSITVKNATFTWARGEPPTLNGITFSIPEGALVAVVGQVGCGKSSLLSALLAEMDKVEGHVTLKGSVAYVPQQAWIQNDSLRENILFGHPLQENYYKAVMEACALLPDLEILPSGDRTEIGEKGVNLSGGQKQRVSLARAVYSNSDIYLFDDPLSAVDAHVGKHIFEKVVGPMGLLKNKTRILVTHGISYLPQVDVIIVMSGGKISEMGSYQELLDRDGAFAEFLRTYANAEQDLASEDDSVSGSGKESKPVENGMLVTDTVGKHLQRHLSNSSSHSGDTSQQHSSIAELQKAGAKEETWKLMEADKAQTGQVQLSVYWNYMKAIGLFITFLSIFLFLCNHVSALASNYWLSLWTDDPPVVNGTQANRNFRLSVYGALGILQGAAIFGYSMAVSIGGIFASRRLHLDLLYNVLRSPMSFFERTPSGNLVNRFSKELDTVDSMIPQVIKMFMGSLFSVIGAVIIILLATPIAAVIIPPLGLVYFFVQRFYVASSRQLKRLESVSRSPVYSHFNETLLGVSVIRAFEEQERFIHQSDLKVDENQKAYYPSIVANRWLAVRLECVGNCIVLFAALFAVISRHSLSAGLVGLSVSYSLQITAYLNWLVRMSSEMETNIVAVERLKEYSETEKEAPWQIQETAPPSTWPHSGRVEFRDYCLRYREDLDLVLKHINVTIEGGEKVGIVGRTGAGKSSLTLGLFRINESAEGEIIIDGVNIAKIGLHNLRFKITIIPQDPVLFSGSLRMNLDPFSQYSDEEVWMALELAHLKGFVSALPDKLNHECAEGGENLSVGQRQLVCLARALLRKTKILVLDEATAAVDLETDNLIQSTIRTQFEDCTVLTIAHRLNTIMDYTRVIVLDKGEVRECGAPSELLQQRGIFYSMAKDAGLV

Abcb11, sequence (Q9QY30 whole entry): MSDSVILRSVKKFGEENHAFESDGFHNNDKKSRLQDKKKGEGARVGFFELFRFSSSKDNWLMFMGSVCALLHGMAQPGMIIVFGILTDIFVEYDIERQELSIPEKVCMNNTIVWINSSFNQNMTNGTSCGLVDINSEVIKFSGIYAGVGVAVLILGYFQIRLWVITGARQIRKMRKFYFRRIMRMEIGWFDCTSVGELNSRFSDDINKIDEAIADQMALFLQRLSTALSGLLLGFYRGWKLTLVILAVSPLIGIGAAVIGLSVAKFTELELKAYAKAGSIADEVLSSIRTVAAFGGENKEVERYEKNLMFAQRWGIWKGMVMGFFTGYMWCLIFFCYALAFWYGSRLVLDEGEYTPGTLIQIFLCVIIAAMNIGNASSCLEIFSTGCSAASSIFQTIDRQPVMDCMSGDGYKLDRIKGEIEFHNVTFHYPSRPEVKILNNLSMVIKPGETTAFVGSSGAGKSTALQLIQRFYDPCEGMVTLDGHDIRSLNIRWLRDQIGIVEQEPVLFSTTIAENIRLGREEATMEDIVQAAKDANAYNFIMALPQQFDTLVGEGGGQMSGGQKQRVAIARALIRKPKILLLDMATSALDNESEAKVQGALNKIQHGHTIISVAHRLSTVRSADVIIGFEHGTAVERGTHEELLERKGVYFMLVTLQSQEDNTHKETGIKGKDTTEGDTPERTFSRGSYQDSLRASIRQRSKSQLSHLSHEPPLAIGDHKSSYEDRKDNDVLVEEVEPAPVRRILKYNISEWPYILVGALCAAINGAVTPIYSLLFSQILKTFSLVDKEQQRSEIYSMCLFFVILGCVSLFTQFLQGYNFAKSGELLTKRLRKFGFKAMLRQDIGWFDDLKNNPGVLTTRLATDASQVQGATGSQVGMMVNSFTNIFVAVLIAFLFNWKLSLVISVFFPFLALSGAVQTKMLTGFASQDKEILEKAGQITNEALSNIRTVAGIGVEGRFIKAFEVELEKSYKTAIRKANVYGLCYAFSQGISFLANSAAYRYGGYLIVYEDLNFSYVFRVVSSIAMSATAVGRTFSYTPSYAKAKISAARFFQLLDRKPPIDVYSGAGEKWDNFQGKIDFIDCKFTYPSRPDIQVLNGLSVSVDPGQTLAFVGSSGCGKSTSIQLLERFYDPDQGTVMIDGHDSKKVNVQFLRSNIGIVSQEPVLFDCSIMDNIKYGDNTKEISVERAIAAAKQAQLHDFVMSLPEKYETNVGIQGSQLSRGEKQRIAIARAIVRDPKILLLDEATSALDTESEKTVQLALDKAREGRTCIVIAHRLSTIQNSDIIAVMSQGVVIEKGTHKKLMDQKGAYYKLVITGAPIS
Slc22a8, sequence (Q9WTW5 whole entry): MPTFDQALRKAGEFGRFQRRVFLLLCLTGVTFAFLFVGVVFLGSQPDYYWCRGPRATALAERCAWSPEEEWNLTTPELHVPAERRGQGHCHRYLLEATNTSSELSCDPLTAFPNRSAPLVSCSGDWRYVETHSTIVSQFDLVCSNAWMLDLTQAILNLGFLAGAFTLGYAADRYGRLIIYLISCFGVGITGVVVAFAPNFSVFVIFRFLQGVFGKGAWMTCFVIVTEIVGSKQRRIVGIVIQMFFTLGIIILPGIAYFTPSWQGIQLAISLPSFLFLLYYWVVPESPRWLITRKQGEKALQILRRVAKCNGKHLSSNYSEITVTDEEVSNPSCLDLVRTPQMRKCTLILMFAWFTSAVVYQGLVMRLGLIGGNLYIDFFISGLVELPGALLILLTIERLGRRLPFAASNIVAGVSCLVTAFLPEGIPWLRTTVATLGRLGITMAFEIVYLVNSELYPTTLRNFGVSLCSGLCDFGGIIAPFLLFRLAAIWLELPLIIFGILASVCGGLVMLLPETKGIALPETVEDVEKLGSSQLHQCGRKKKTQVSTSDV

## C=CCNC1=C2C[C@@H](C)C[C@H](OC)[C@H](O)[C@@H](C)/C=C(\C)[C@H](OC(N)=O)[C@@H](OC)/C=C\C=C(/C)C(=O)NC(=CC1=O)C2=O [17AAG, 17-(allyl-amino)-17 denethoxygelandomycin]
Slc7a11
  sensitivity relative to GA: 7.2 fold

## C(=N\NC1=NCCN1)/c1c2ccccc2c(/C=N/NC2=NCCN2)c2ccccc12 [Bisantrene]
Abcg2 & Abcb1
  Drug resistance/sensitivity: Taxol analog (S),

## C[C@H](CCC(=O)NCCS(=O)(=O)O)[C@H]1CC[C@H]2[C@@H]3[C@H](O)C[C@@H]4C[C@H](O)CC[C@]4(C)[C@H]3C[C@H](O)[C@]12C [Taurocholate]
Abcb11; WT mice after Taurocholate injection
  bile acid output increase: output; WT mice show a 20-fold
Abcb11; WT mice after tail vein injection
  taurocholate output increase: 20 fold

## C[C@H]1O[C@@H](O[C@H]2[C@@H](O)C[C@H](O[C@H]3[C@@H](O)C[C@H](O[C@H]4CC[C@@]5(C)[C@H](CC[C@@H]6[C@@H]5C[C@@H](O)[C@]5(C)[C@@H](C7=CC(=O)OC7)CC[C@]65O)C4)O[C@@H]3C)O[C@@H]2C)C[C@H](O)[C@@H]1O [digoxin]
Abcb1
  direct liver mediated excretion: moderate decrease

## NCCc1c[nH]cn1 [Histamine]
Slc22a8
  Drug resistance/sensitivity: Histamine (S),

## Cn1c(N)nc2ncc(-c3ccccc3)cc21 [PhIP]
Abcg2
  concentration: higher concentration
  intestinal excretion: highly impaired

## Nc1ncn([C@@H]2O[C@H](CO)[C@@H](O)[C@H]2O)c(=O)n1 [azacytidine]
[1]
  loss in cytotoxicity: > 10 fold

## CC(=O)O[C@H]1C(=O)[C@@]2(C)[C@H]([C@H](OC(=O)c3ccccc3)[C@]3(O)C[C@H](OC(=O)[C@H](O)[C@@H](NC(=O)c4ccccc4)c4ccccc4)C(C)=C1C3(C)C)[C@]1(OC(C)=O)CO[C@@H]1C[C@@H]2O [paclitaxel]
Abcb1
  direct liver mediated excretion: moderate decrease
Abcb1; brain, ovaries, adrenal gland and intestine of Abcb1-/- mice
  organ penetration: increased penetration

## COc1cc([C@@H]2c3cc4c(cc3[C@@H](O[C@@H]3O[C@@H]5CO[C@@H](C)O[C@H]5[C@H](O)[C@H]3O)[C@H]3COC(=O)[C@H]23)OCO4)cc(OC)c1O [Etoposide]
Abcc1
  white blood cell, bone marrow nucleated cell and spleen myeloid activity: depleted in Abcc1 mice.
Abcc1; gene Abcc1
  Drug resistance/sensitivity: Etoposide (S)

## COc1cc([C@@H]2c3cc4c(cc3[C@@H](O[C@@H]3O[C@@H]5CO[C@@H](C)O[C@H]5[C@H](O)[C@H]3O)[C@H]3COC(=O)[C@H]23)OCO4)cc(OC)c1OP(=O)(O)O [Etoposide phosphate]
Abcc1; Abcc1-/- vs WT mice, single dose
  toxicity in transporter deficient mice compared to WT: twice as toxic
Abcc1
  white blood cell, bone marrow nucleated cell and spleen myeloid activity: severe depletion
